According to ChEMBL document CHEMBL4229336, “Identification of (1S,4S)-2,5-diazabicyclo[2.2.1]heptane-dithiocarbamate-nitrostyrene hybrid as potent antiproliferative and apoptotic inducing agent against cervical cancer cell lines” (Eur J Med Chem, 2018):

Legend:
Ca-Ski [1] = test: Antiproliferative activity against human CaSki cells after 24 hrs by crystal violet staining-based assay; assay type: functional, cell-based
[2] = (§1) Antiproliferative activity against human ViBo cells after 24 hrs by crystal violet staining-based assay; assay type: functional, cell-based
HeLa [3] = test: Antiproliferative activity against human HeLa cells after 24 hrs by crystal violet staining-based assay; assay type: functional, cell-based
[4] = Cytotoxicity against human ViBo cells assessed as induction of necrosis at antiproliferative IC50 after 24 hrs by LDH release assay relative to control; assay type: cell-based
Ca-Ski [5] = test: Cytotoxicity against human CaSki cells assessed as induction of necrosis at antiproliferative IC50 after 24 hrs by LDH release assay relative to control; assay type: cell-based
HeLa [6] = test: Cytotoxicity against human HeLa cells assessed as induction of necrosis at antiproliferative IC50 after 24 hrs by LDH release assay relative to control; assay type: cell-based
Homo sapiens = species on record: Homo sapiens; test: as §1; assay type: functional, cell-based

Molecule `CC(=O)O[C@H]1C(=O)[C@@]2(C)[C@H]([C@H](OC(=O)c3ccccc3)[C@]3(O)C[C@H](OC(=O)[C@H](O)[C@@H](NC(=O)c4ccccc4)c4ccccc4)C(C)=C1C3(C)C)[C@]1(OC(C)=O)CO[C@@H]1C[C@@H]2O` [PACLITAXEL] has an IC50 (Ca-Ski [1]) of 2.9 µM and an IC50 [2] of 1.59 µM.

For `Cc1ccc(C(C[N+](=O)[O-])SC(=S)N2C[C@@H]3C[C@H]2CN3C(=O)OC(C)(C)C)cc1` (stereo not given in full), the Activity (HeLa [3]) was “Dose-dependent effect”, the IC50 (HeLa [3]) was 5.52 µM and the Activity [4] was 5%. For the same molecule, the Activity (Ca-Ski [5]) was 2%, the Activity (Ca-Ski [1]) was “Dose-dependent effect” and the IC50 (Ca-Ski [1]) was 5.94 µM. The Activity (HeLa [6]) was 0%, the Activity (Homo sapiens) was “Dose-dependent effect” and the IC50 [2] was 3.19 µM.

With `COc1ccc(C(C[N+](=O)[O-])SC(=S)N2C[C@@H]3C[C@H]2CN3C(=O)OC(C)(C)C)cc1` (stereo not given in full) the Activity (HeLa [3]) was “Dose-dependent effect”, the IC50 (HeLa [3]) was 5.29 µM and the Activity [4] was 5%. The Activity (Ca-Ski [5]) was 0%, the Activity (Ca-Ski [1]) was “Dose-dependent effect” and the IC50 (Ca-Ski [1]) was 6.17 µM. The Activity (HeLa [6]) was 0%, the Activity (Homo sapiens) was “Dose-dependent effect” and the IC50 [2] was 2.64 µM.

With `CC(C)(C)OC(=O)N1C[C@@H]2C[C@H]1CN2C(=S)SC(C[N+](=O)[O-])c1ccc(C(F)(F)F)cc1` (stereo not given in full) the Activity (HeLa [3]) was “Dose-dependent effect”, the IC50 (HeLa [3]) was 6.1 µM and the Activity [4] was 0%. The Activity (Ca-Ski [5]) was 20%, the Activity (Ca-Ski [1]) was “Dose-dependent effect” and the IC50 (Ca-Ski [1]) was 6.1 µM. The Activity (HeLa [6]) was 5%, the Activity (Homo sapiens) was “Dose-dependent effect” and the IC50 [2] was 7.32 µM.

Molecule `CC(C)(C)OC(=O)N1CCN(C(=S)SC(C[N+](=O)[O-])c2ccccc2)CC1` (stereo not given) has an IC50 (HeLa [3]) of 31.6 µM, an Activity [4] of 0% and an Activity (Ca-Ski [5]) of 0%. It also gave an IC50 (Ca-Ski [1]) of 29.4 µM, an Activity (HeLa [6]) of 0% and an IC50 [2] of 19.2 µM.
